{"source": "patent US20240000831A1", "about": "“MOLECULAR BASIS OF FATTY LIVER INHIBITION BY SODIUM BORATES” (YEDITEPE UNIVERSITESI, priority 2020, published 2024)", "key": {"[1]": {"conditions": "cited from earlier work"}, "[2]": {"test_system": "non-alcoholic fatty liver pathway genes in healthy human cells", "assay": "Microarray experiment: gene expression related to fatty liver", "format": "cell-based", "conditions": "healthy human cells treated for 3 days; ADIPOR2, PRKAG2, IRS1, PIK3R1, NFKB1, MAP3K11, BID, CYCS, BAX, CASP3, TGFB1", "procedure": "All changes in the level of gene expression related to fatty liver in healthy human cells were determined by this method upon being treated with sodium borates for 3 days. It was determined how these genes affect the pathway related to fatty liver. As a result of the microarray experiment, it is understood that the expression level of many genes in the non-alcoholic fatty liver pathway decreased by 2 times and more, and fatty liver was prevented as the pathway lost its function substantially. Genes, whose expression was reduced, were ADIPOR2, PRKAG2, IRS1, PIK3R1, NFKB1, MAP3K11, BID, CYCS, BAX, CASP3 and TGFB1 (FIG. 1). In our in vivo study, it has been proven on animals that fatty liver was inhibited as a result of the failure of this pathway."}, "[3]": {"test_system": "pathological disorders in the liver caused by high-fat diet in balb/c mice", "assay": "Histological evaluation of liver tissue (hematoxylin-eosin staining scores)", "format": "in vivo", "conditions": "for hematoxylin-eosin staining technique score (Mean ± SD): 10 weeks, n = 6, YYD alone 12.6 ± 1.54, control 1.60 ± 1.14", "procedure": "(§1) 8-weeks-old female 24 balb/c mice were used for the in vivo experiment. The adaptation process was completed in cages in a temperature-controlled room with a 12-hour light/dark cycle. Then, the mice were divided into four different dietary groups (n=6 for each group): normal diet (2.70 kcal/g), high-fat diet (YYD) (4.00 kcal/g), YYD supplemented with 0.5 mg/g SB, and YYD supplemented with 1.5 mg/g SB. At the end of 10 weeks, mice were sacrificed and weights of their livers were measured. At the end of 10 weeks, the livers of the mice were removed and weighed, and it was observed that fatty liver caused by high-fat diet was inhibited by the use of 1.5 mg/g SB as a supplement (FIG. 2A).\nLiver tissues of mice were prepared for histological evaluation. These tissue samples were immersed in 10% neutral formaldehyde prepared with 0.1 M phosphate buffer (pH 7.4) for fixation at 4° C. Subsequently, the samples were rinsed in tap water for 12 hours, then dehydrated in an alcohol batch and embedded in paraffin. From samples embedded in paraffin, 5 micron thick samples were obtained using a rotary microtome (Leica RM 2245 model; Leica Instruments, Germany). All tissue sections were taken onto poly-L-lysine coated slides. All these samples were stained with hematoxylin eosin staining technique and imaged under a light microscope (Leica DM6000B). […] This method has been used to evaluate the situation of pathological deteriorations caused by high fat diet when different sodium boron administrations are applied and when not applied."}, "[4]": {"test_system": "fatty liver caused by high-fat diet in balb/c mice", "assay": "In vivo experiment: liver weight of high-fat diet mice", "conditions": "YYD supplemented with 1.5 mg/g SB, 10 weeks, female balb/c mice", "procedure": "as §1"}, "[5]": {"assay": "Toxicology studies in rats adapted to humans", "format": "in vivo", "conditions": "daily dose of 500 mg, rat toxicology studies adapted to humans", "procedure": "Today, there is no specific drug for direct treatment of fatty liver. […] It is known that boron homeostasis taken into mammalian systems is excreted via urine within 72 hours. Boron also regulates calcium, potassium and magnesium metabolisms in the body."}}, "note": "Like-named read-outs stand apart in the source and are kept apart here.", "data": [{"compound": "[B]", "note": "[boron]", "values": [{"measurement": "time to excretion via urine", "setting": "[1]; mammalian systems", "value": "≤ 72", "unit": "h"}, {"measurement": "side effects", "setting": "[1]; up to 18 mg of boron daily in adults", "value": "does not cause any side effects"}]}, {"compound": "sodium borate [SB]", "values": [{"measurement": "decrease in expression levels of genes in the non-alcoholic fatty liver pathway", "setting": "[2]", "value": "≥ 2", "unit": "times"}, {"measurement": "hematoxylin-eosin staining technique score (Mean ± SD)", "setting": "[3]; YYD + 0.5 mg SB/g VA", "value": "8.6±1.14"}, {"measurement": "hematoxylin-eosin staining technique score (Mean ± SD)", "setting": "[3]; YYD + 1.5 mg SB/g VA", "value": "3.6 ± 0.89"}, {"measurement": "hematoxylin-eosin staining technique score (Mean ± SD)", "setting": "[3]; YYD + 1.5 mg SB/g VA, listed as sodium borate", "value": "3.6±0.89"}, {"measurement": "pathological disorders caused by high-fat diet (histological evaluation)", "setting": "[3]; both doses (0.5 and 1.5 mg/g), liver tissue", "value": "decreased the pathological disorders"}, {"measurement": "fatty liver caused by high-fat diet (liver weight)", "setting": "[4]", "value": "inhibited"}, {"measurement": "side effects", "setting": "[5]", "value": "no side effects"}]}]}
